In patent publication US8846699B2, “Quinazoline derivatives as a multiplex inhibitor and method for the preparation thereof” (Hanmi Pharm. Co., Ltd., priority 2005, dated 2014):

How the values were obtained:
[1] = system: skin cancer cell line, A431; experiment: Inhibitory effect on growth of cancer cell line A431, SRB; type: cell-based; details: overexpressed EGFR1 (HER-1)
Summary of the method: (§1)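 Cells were cultured in DMEM with 10% FBS. Compounds were applied at 10 μM with 10-fold serial dilution to 10^−4, DMSO <1%, for 72 h at 37 °C. Cells were then TCA-fixed and stained with 0.4% SRB, and absorbance was read at 570 nm after solubilisation in 10 mM Tris base.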

EGFR1 (HER-1) = EGFR1 (HER-1) (Homo sapiens (Human), UniProt P00533); experiment: EGFR1 (HER-1) enzyme assay, fluorescence polarization; type: biochemical; details: 100 μM ATP, poly(Glu, Tyr) substrate
EGFR1 (HER-1), sequence (P00533 25-1210): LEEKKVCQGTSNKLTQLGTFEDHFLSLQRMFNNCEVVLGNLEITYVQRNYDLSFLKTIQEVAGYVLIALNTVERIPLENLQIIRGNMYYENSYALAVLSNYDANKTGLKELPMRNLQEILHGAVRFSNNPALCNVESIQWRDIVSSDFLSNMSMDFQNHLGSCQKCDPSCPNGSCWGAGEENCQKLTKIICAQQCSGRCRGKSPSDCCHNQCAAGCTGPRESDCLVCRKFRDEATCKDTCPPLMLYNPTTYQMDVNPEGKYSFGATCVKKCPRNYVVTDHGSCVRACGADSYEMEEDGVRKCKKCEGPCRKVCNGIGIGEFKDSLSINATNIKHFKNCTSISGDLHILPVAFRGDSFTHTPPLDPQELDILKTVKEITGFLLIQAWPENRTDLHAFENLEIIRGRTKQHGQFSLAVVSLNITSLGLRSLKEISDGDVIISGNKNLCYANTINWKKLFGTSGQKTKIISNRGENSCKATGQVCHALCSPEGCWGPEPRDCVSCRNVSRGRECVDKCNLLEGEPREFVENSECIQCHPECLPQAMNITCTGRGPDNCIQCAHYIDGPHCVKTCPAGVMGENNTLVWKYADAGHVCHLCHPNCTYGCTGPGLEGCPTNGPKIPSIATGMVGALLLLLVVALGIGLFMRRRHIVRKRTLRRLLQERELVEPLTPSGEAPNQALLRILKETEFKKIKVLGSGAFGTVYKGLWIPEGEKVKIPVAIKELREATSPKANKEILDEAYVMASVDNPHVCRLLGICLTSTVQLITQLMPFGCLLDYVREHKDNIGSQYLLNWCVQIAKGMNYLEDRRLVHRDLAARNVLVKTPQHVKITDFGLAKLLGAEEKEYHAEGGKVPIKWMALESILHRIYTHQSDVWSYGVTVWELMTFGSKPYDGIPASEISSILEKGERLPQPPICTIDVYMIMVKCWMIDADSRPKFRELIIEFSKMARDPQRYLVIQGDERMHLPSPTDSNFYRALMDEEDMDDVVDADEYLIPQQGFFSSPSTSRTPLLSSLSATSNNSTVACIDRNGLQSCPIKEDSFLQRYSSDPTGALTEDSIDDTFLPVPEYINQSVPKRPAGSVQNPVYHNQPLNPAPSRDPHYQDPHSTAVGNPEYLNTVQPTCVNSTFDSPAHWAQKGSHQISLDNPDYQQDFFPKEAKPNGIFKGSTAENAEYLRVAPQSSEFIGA

[2] = system: breast cancer cell line, SK-Br3; experiment: Inhibitory effect on growth of cancer cell line SK-Br3, SRB; type: cell-based; details: overexpressed EGFR2 (HER-2)
Summary of the method: as §1

VEGFR2 (KDR) = VEGFR2 (KDR) (Homo sapiens (Human), UniProt P35968); experiment: VEGFR2 (KDR) enzyme assay, fluorescence polarization; type: biochemical; details: 5 μM ATP, poly(Glu, Tyr) substrate
VEGFR2 (KDR), sequence (P35968 20-1356): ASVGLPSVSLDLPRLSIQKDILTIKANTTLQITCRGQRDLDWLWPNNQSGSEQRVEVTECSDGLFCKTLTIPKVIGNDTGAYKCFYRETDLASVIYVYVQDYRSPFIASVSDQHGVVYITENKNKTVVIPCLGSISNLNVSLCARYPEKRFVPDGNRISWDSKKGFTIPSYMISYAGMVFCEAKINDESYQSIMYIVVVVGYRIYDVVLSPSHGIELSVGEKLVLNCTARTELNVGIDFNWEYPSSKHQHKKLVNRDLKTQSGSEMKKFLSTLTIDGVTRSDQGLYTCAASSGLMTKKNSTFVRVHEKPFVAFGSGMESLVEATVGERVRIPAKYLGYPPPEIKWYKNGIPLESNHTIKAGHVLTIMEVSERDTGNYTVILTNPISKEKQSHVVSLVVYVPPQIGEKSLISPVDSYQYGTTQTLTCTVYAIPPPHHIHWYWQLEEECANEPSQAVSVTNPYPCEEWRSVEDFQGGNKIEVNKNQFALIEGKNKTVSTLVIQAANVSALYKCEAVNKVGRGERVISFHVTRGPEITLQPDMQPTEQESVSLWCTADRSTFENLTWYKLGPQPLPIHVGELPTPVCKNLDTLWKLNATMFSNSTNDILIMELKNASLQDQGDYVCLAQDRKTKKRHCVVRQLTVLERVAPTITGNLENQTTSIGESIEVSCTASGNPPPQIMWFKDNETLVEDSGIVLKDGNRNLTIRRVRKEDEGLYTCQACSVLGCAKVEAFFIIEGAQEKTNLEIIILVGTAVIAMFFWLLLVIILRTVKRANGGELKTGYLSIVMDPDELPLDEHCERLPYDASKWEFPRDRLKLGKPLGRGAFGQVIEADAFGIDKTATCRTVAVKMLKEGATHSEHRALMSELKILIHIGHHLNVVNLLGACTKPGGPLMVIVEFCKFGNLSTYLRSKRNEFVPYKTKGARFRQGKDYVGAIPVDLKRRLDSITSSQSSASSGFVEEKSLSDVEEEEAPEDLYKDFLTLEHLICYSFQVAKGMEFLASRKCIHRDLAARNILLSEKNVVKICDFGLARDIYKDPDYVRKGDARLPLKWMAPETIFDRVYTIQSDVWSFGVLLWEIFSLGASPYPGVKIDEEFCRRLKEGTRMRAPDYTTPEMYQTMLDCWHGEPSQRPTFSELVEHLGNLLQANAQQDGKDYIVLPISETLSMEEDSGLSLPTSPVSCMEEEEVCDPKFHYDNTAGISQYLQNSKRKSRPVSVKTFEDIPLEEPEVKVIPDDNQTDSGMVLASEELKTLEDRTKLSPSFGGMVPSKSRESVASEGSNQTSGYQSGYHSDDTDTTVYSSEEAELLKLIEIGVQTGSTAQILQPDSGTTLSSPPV
Summary of the method: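 Autophosphorylation read by fluorescence polarization: VEGFR2 (Proquinase) at 200 ng/10 μl with 5 μM ATP and 10 ng/ml poly(Glu,Tyr) 4:1, in 20 mM HEPES pH 7.4, 5 mM MgCl2, 2 mM MnCl2, 50 μM Na3VO4. Reaction 1 h at room temperature, EDTA stop, then anti-phosphotyrosine antibody/tracer for 30 min in the dark.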

[3] = system: Human Umbilical Vein Endothelial Cell (HUVEC); experiment: Inhibitory effect on growth of human umbilical vein endothelial cell (HUVEC), MTS; type: cell-based; details: 10 ng/ml VEGF, absorbance 490 nm
[4] = system: colon and rectal cancer cell line, SW-620; experiment: Inhibitory effect on growth of cancer cell line SW-620, SRB; type: cell-based; details: not having overexpressed EGFR and EGFR2
Summary of the method: as §1

IC50 ([1]; Homo sapiens, A-431, 72 h)	IC50 (EGFR1 (HER-1))	IC50 ([2]; Homo sapiens, SK-BR-3, 72 h)	IC50 (VEGFR2 (KDR))	IC50 ([4]; Homo sapiens, 72 h)	Compound	IC50 ([3]; Homo sapiens, 96 h)	IC50 ([1]; 72 hours)	IC50 ([2]; 72 hours)	IC50 ([3]; 96 hours)	IC50 ([4]; 72 hours)
15 nM	12 nM	112 nM	654 nM	727 nM	C=CC(=O)Nc1cc2c(Nc3ccc(Br)cc3F)ncnc2cc1OCCNC(=O)CN1CCN(C)CC1 [Example 102, N-(4-(4-bromo-2-fluoro-phenylamino)-7-{2-[2-(4-methyl-piperazin-1-yl)-acetylamino]-ethoxy}-quinazolin-6-yl)-acrylamide]	682 nM	–	–	–	–
321 nM	251 nM	658 nM	372 nM	726 nM	C=CC(=O)Nc1cc2c(Nc3ccc(Br)cc3F)ncnc2cc1OCCNC(=O)C(C)CN(C)C (stereo not drawn) [Example 74, N-{4-(4-bromo-2-fluoro-phenylamino)-7-[2-(3-dimethylamino-2-methyl-propionylamino)-ethoxy]-quinazolin-6-yl}-acrylamide]	358 nM	–	–	–	–
45 nM	44 nM	111 nM	198 nM	10000 nM	C=CC(=O)Nc1cc2c(Nc3ccc(Br)cc3F)ncnc2cc1OCCNC(=O)CCN(CC)CC [Example 59, N-{4-(4-bromo-2-fluoro-phenylamino)-7-[2-(3-diethylamino-propionylamino)-ethoxy]-quinazolin-6-yl}-acrylamide]	204 nM	–	–	–	–
114 nM	128 nM	70 nM	698 nM	10000 nM	C=CC(=O)Nc1cc2c(Nc3ccc(Br)cc3F)ncnc2cc1OCCNC(=O)C(C)C [Example 48, N-[4-(4-bromo-2-fluoro-phenylamino)-7-(2-isobutyrylamino-ethoxy)-quinazolin-6-yl]-acrylamide]	697 nM	–	–	–	–
46 nM	35 nM	53 nM	134 nM	7860 nM	C=CC(=O)Nc1cc2c(Nc3ccc(Br)c(Cl)c3F)ncnc2cc1OCCNC(=O)N1CCOCC1 [Example 41, morpholine-4-carboxylic acid {2-[6-acryloylamino-4-(4-bromo-3-chloro-2-fluoro-phenylamino)-quinazolin-7-yloxy]-ethyl}-amide]	221 nM	–	–	–	–
90 nM	98 nM	225 nM	457 nM	9560 nM	C=CC(=O)Nc1cc2c(Nc3ccc(Br)cc3F)ncnc2cc1OCCNC(=S)NC [Example 35, N-{4-(4-bromo-2-fluoro-phenylamino)-7-[2-(3-methyl-thioureido)-ethoxy]-quinazolin-6-yl}-acrylamide]	951 nM	–	–	–	–
42 nM	26 nM	103 nM	462 nM	10000 nM	C=CC(=O)Nc1cc2c(Nc3ccc(Br)cc3F)ncnc2cc1OCCNC(=O)CN(CC)CC [Example 167, N-{4-(4-bromo-2-fluoro-phenylamino)-7-[2-(2-diethylamino-acetylamino)-ethoxy]-quinazolin-6-yl}-acrylamide]	108 nM	–	–	–	–
35 nM	39 nM	198 nM	635 nM	7520 nM	C=CC(=O)Nc1cc2c(Nc3ccc(Br)cc3F)ncnc2cc1OCCNC(=O)CSC [Example 46, N-{4-(4-bromo-2-fluoro-phenylamino)-7-[2-(2-methylsulfanyl-acetylamino)-ethoxy]-quinazolin-6-yl}-acrylamide]	656 nM	–	–	–	–
45 nM	42 nM	897 nM	854 nM	10000 nM	C=CC(=O)Nc1cc2c(Nc3ccc(Br)cc3Cl)ncnc2cc1OCCNC(C)=O [Example 115, N-[7-(2-acetylamino-ethoxy)-4-(4-bromo-2-chloro-phenylamino)-quinazolin-6-yl]-acrylamide]	934 nM	–	–	–	–
62 nM	69 nM	243 nM	854 nM	4590 nM	C=CC(=O)Nc1cc2c(Nc3ccc(Br)cc3F)ncnc2cc1OCCNC(=O)C(=C)C [Example 49, N-{2-[6-acryloylamino-4-(4-bromo-2-fluoro-phenylamino)-quinazolin-7-yloxy]-ethyl}-2-methyl-acrylamide]	964 nM	–	–	–	–
137 nM	98 nM	198 nM	79 nM	9760 nM	C=CC(=O)Nc1cc2c(Nc3ccc(Br)c(Cl)c3F)ncnc2cc1OCCNC(=O)OC [Example 165, {2-[6-acryloylamino-4-(4-bromo-3-chloro-2-fluoro-phenylamino)-quinazolin-7-yloxy]-ethyl}-carbamic acid methylester]	189 nM	–	–	–	–
22 nM	21 nM	242 nM	278 nM	9530 nM	C=CC(=O)Nc1cc2c(Nc3ccc(Br)c(Cl)c3F)ncnc2cc1OCCNC(=O)CCOC [Example 150, N-{4-(4-bromo-3-chloro-2-fluoro-phenylamino)-7-[2-(3-methoxy-propionylamino)-ethoxy]-quinazolin-6-yl}-acrylamide]	358 nM	–	–	–	–
596 nM	652 nM	694 nM	954 nM	10000 nM	C=CC(=O)Nc1cc2c(Nc3ccc(Br)cc3F)ncnc2cc1OCC(=O)NCCN(CC)CC [Example 65, N-{4-(4-bromo-2-fluoro-phenylamino)-7-[(2-diethylamino-ethylcarbamoyl)-methoxy]-quinazolin-6-yl}-acrylamide]	964 nM	–	–	–	–
951 nM	866 nM	7800 nM	365 nM	10000 nM	CCC(=O)Nc1cc2c(Nc3ccc(Br)cc3F)ncnc2cc1OCCNC(C)=O [Example 77, propionic acid [7-(2-acetylamino-ethoxy)-4-(4-bromo-2-fluoro-phenylamino)-quinazolin-6-yl]-amide]	350 nM	–	–	–	–
38 nM	26 nM	67 nM	250 nM	9570 nM	C=CC(=O)Nc1cc2c(Nc3ccc(F)c(F)c3F)ncnc2cc1OCC1CCN(C(C)=O)CC1 [Example 7, N-[7-(1-acetyl-piperidin-4-ylmethoxy)-4-(2,3,4-trifluoro-phenylamino)-quinazolin-6-yl]-acrylamide]	99 nM	–	–	–	–

Compound	IC50 ([1]; Homo sapiens, A-431, 72 h)	IC50 (EGFR1 (HER-1))	IC50 ([2]; Homo sapiens, SK-BR-3, 72 h)	IC50 (VEGFR2 (KDR))	IC50 ([4]; Homo sapiens, 72 h)	IC50 ([3]; Homo sapiens, 96 h)	IC50 ([1]; 72 hours)	IC50 ([2]; 72 hours)	IC50 ([3]; 96 hours)	IC50 ([4]; 72 hours)
C=CC(=O)Nc1cc2c(Nc3ccc(Br)c(Cl)c3F)ncnc2cc1OC[C@@H](C)NC(=O)CN(C)C [Example 159]	–	286 nM	–	419 nM	–	–	254 nM	162 nM	423 nM	6650 nM
C=CC(=O)Nc1cc2c(Nc3ccc(Br)cc3F)ncnc2cc1OCC(C)NC(=O)CN(C)C (stereo not drawn) [Example 153]	–	172 nM	–	433 nM	–	–	160 nM	207 nM	521 nM	9570 nM
C=CC(=O)Nc1cc2c(Nc3ccc(Br)c(Cl)c3F)ncnc2cc1OCC(C)NC(=O)CN(C)C (stereo not drawn) [Example 157]	–	88 nM	–	687 nM	–	–	95 nM	165 nM	752 nM	8360 nM
